Where “and” joins values, the source holds several entries; their conditions need not be identical. Identical values can stand only once.
Assays:
in vitro = settings: human
PfPI3K = settings: read-out: IC50 PfPI3K; in vitro; cited from earlier work
[1] = target: PI3K (Vps34; PF3D7_0515300) (Plasmodium falciparum, UniProt Q8I3V5); assay: Lipid-Kinobead chemoproteomic competition binding, Pf3D7 ABS extract; settings: read-out: Kd app for PI3K; Lipid-Kinobeads, N = 1
[2] = tested on: PfNF54 stage V gametocytes; assay: Standard membrane feeding assay; parameters: species or system Plasmodium falciparum; settings: 2 μM, stage V gametocytes incubated 48 hours before feeding; mean ±SD
[3] = tested on: PKG (PF3D7_1436600) cKD parasite line; assay: Susceptibility assay with PKG conditional knockdown line; settings: low aTc (2 nM) vs high aTc
[4] = Whole-blood pharmacokinetics in NSG mouse efficacy study, LC-MS/MS; type: in vivo, NSG mice
[5] = tested on: PI3K (PF3D7_0515300) cKD parasite line; assay: Susceptibility assay with PI3K conditional knockdown line; settings: no aTc vs high aTc
[6] = target: casein kinase 1 (CK1; PF3D7_1136500) (Plasmodium falciparum, UniProt Q8IHZ9); assay: Kinobead chemoproteomic competition binding, Pf3D7 ABS extract
PI4Kβ (PF3D7_0509800) = PI4Kβ (PF3D7_0509800) (Plasmodium falciparum, UniProt Q8I406); assay: as above; settings: read-out: Kd app for PI4Kβ; Kinobeads, P. falciparum ABS extract
Pf3D7 trophozoites = assay: Metabolomic perturbation profiling by LC-MS; type: cell-based, Plasmodium falciparum; settings: 10-fold the IC50 for 2.5 hours, vs no-drug control
[7] = tested on: PfNF54 stage IV/V gametocytes; assay: Late-stage gametocytocidal luciferase reporter assay; type: cell-based; settings: Plasmodium falciparum, 48 h, read-out: IC50, viability of late-stage gametocytes
Pf3D7 = assay: P. falciparum NSG mouse model of infection, 4-day test; type: in vivo, Plasmodium falciparum; settings: day 7, single daily oral dose for four days, NSG mice
[8] = tested on: control cell line expressing an aptamer-regulatable fluorescent protein; assay: Susceptibility assay with aptamer-regulatable control line; settings: low vs high aTc
[9] = tested on: P. berghei ANKA GFP-Luc-SMcon sporozoites; assay: P. berghei liver stage assay; type: cell-based; settings: Plasmodium berghei, HepG2, read-out: IC50, inhibition of parasite invasion of HepG2 liver cells (liver stage)
[10] = tested on: PfNF54 stages II/III gametocytes; assay: Early-stage gametocytocidal luciferase reporter assay; type: cell-based; settings: Plasmodium falciparum, read-out: inhibition of early-stage gametocytes
Tolerability = type: in vivo; settings: 10 mg/kg oral once daily, both animals
[11] = tested on: male gamete formation from stage V gametocytes; assay: Male gamete exflagellation inhibition assay; type: cell-based; settings: Plasmodium falciparum, 48 h, read-out: inhibition of male gamete formation (EIA)
PfNF54 strain = assay: In vitro ABS activity against PfNF54 strain; type: cell-based; settings: Plasmodium falciparum, read-out: in vitro IC50 against PfNF54 strain
[12] = target: T1, cdc2-related protein kinase 5 (CRK5; PF3D7_0615500) (Plasmodium falciparum, UniProt C6KSZ6); assay: Kinobead chemoproteomic competition binding, Pf3D7 ABS extract; settings: read-out: Kd app for CRK5; Kinobeads, P. falciparum ABS extract
T1 sequence (C6KSZ6 1-705): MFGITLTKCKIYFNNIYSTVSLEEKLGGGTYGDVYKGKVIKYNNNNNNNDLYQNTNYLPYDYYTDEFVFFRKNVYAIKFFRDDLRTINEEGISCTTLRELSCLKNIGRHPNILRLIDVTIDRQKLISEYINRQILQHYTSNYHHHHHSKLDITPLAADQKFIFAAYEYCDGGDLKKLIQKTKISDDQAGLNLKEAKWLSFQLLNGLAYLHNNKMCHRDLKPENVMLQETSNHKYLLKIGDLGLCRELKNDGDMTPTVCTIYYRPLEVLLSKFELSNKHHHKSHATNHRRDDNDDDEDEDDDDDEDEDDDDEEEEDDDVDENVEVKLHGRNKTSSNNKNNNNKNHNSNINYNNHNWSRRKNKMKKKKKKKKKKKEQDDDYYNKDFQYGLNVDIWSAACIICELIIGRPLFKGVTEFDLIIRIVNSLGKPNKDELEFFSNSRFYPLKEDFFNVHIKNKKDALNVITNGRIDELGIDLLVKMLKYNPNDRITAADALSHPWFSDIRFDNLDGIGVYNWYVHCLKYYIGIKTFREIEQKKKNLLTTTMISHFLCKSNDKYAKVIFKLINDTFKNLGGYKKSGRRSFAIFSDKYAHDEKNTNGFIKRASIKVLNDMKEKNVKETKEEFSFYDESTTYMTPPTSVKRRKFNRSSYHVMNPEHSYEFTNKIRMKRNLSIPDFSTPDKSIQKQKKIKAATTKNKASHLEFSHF

[13] = target: T2, protein kinase 2 (PK2; PF3D7_1238900) (Plasmodium falciparum, UniProt Q8I534); assay: as above; settings: read-out: Kd app for PK2; Kinobeads, P. falciparum ABS extract
T2 sequence (Q8I534 1-509): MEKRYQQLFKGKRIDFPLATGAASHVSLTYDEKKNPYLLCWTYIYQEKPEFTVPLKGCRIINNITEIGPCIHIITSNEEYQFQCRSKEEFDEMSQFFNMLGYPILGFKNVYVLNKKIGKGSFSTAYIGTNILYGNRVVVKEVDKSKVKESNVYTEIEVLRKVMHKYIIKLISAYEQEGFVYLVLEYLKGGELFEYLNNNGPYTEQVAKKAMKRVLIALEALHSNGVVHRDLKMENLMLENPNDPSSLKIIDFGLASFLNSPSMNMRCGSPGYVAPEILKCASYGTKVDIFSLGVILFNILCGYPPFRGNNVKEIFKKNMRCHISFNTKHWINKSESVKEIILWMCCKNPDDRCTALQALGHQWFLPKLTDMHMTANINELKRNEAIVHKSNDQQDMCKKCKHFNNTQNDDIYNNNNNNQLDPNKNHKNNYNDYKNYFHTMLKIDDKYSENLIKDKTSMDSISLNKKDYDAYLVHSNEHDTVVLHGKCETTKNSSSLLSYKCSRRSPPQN

PI3K (Vps34; PF3D7_0515300), sequence (Q8I3V5 1-2133): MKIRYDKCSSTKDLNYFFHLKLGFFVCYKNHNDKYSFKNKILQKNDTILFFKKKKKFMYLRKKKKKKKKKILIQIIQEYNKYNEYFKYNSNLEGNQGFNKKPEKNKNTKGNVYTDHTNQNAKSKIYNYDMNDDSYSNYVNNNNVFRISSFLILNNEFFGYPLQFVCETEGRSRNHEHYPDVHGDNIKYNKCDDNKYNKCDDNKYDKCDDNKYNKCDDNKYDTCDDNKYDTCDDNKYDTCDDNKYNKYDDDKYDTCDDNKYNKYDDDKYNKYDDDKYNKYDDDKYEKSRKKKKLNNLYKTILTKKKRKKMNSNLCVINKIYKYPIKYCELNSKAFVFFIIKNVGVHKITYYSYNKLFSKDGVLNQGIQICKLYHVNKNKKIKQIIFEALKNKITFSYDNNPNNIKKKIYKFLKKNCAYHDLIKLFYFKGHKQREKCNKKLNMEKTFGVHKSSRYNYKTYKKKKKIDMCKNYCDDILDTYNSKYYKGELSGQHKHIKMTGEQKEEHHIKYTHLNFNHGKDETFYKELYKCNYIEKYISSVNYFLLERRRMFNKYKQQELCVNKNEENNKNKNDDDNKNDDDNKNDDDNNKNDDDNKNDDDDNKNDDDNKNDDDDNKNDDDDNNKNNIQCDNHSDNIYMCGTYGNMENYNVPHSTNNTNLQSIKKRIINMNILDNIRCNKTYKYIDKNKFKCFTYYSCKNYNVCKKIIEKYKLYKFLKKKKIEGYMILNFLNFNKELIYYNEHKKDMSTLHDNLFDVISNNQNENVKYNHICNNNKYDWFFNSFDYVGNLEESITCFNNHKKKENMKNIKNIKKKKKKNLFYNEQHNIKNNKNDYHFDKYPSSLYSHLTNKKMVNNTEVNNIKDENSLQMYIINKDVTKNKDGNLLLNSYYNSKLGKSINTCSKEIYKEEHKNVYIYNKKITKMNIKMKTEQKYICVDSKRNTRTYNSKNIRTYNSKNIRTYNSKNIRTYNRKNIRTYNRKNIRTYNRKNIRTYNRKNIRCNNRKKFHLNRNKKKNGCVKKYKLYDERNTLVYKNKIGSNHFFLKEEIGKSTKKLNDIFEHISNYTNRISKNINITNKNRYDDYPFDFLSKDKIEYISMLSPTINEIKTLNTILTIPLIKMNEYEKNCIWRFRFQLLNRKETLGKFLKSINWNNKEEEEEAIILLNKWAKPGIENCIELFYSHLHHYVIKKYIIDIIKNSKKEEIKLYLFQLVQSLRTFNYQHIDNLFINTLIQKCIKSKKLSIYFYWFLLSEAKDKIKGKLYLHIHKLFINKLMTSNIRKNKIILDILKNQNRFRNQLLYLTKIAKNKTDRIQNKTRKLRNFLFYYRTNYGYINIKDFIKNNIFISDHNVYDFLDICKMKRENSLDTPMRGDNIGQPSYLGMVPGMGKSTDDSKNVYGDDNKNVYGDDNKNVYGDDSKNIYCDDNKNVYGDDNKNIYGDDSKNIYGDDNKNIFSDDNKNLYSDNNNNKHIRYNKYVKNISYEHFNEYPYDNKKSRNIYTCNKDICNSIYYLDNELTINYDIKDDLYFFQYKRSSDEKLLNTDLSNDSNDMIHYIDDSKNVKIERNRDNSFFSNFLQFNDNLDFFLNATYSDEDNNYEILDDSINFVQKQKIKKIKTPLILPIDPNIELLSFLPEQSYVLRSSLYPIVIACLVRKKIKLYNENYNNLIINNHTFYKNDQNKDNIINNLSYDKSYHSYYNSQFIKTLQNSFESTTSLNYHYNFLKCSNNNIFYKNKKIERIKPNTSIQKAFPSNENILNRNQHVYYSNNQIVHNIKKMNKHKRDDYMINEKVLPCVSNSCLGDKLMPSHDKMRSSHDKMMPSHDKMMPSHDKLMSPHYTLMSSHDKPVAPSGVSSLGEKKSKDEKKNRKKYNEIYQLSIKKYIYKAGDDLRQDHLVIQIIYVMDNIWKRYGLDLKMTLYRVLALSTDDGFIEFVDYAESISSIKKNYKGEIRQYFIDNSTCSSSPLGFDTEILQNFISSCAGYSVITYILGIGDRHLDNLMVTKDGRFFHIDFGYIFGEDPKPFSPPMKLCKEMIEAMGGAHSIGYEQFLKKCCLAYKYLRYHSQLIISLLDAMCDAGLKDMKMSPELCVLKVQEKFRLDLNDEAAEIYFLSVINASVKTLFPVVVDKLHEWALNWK
casein kinase 1 (CK1; PF3D7_1136500), sequence (Q8IHZ9 whole entry): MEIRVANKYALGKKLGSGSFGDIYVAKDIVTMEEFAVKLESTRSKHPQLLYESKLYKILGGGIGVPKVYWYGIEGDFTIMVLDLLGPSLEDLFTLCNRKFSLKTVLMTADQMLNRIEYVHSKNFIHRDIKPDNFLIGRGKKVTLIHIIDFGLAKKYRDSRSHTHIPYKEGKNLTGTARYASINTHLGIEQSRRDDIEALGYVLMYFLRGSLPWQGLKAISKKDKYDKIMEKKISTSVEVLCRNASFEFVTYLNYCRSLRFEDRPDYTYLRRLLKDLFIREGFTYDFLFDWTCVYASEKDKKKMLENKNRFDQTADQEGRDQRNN
PI4Kβ (PF3D7_0509800), sequence (Q8I406 1-1559): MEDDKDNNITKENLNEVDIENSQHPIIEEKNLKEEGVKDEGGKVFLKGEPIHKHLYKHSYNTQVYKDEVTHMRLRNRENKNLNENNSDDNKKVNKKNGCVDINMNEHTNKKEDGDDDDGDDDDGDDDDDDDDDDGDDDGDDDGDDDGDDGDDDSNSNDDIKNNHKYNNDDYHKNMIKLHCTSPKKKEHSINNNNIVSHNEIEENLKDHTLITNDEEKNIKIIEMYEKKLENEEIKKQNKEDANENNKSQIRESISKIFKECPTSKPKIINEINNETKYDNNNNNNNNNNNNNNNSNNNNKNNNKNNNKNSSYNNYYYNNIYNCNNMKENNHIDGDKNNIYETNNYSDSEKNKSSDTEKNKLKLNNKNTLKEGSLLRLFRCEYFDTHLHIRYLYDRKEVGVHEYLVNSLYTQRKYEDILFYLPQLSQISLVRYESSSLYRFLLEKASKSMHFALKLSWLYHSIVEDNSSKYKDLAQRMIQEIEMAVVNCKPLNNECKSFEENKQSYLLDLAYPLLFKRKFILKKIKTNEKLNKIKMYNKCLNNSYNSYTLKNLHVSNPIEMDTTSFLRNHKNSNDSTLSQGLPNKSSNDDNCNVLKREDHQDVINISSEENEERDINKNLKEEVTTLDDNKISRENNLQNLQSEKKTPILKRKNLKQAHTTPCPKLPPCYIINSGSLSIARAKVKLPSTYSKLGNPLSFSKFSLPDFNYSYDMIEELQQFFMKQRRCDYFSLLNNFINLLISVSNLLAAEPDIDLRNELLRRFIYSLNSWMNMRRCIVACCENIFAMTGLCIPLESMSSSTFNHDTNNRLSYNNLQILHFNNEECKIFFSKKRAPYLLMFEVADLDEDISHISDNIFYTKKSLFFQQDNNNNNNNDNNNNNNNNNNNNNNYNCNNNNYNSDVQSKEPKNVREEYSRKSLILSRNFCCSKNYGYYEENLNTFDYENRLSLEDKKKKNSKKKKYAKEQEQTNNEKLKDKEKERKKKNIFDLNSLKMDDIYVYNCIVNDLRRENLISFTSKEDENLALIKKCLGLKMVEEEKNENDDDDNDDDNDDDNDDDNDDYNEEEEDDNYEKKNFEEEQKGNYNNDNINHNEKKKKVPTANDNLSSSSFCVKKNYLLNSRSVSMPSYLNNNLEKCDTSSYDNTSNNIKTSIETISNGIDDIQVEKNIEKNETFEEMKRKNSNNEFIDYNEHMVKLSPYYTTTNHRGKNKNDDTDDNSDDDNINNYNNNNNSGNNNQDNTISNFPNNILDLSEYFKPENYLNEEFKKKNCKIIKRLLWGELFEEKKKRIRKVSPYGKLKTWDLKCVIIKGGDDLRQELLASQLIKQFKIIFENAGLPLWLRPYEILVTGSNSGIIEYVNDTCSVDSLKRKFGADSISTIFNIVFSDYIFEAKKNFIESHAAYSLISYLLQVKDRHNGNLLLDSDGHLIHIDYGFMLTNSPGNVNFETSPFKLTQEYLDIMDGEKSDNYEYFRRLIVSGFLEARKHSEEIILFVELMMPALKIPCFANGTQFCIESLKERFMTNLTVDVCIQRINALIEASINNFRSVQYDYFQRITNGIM

With `COc1ccc(C[C@H](N)C(=O)N[C@H]2[C@@H](O)[C@H](n3cnc4c(N(C)C)ncnc43)O[C@@H]2CO)cc1` [Puromycin] the IC50 (in vitro) was 588 ± 3 nM.
For `Nc1ccc(-c2ccc3ncc4ccc(=O)n(-c5cccc(C(F)(F)F)c5)c4c3c2)cn1` [Torin-2], the IC50 (PfPI3K) is listed as 0.6 nM.
With `CC(C)n1nc(-c2ccc3oc(N)nc3c2)c2c(N)ncnc21` [sapanisertib] the Kd [1] was ≤ 50 nM and 50 nM, the “transmission-reducing activity (TRA), reduction in mean oocyst formation” value [2] was 54% and the “differential susceptibility on PKG knockdown” value [3] was “did not reveal differential susceptibility”. The “whole-blood exposure level (below lowest limit of quantification)” value ([4]; 0.05 mg/kg oral) was under 1 ng/mL, the “whole-blood exposure level (below lowest limit of quantification)” value ([4]; 0.1 mg/kg oral) was under 1 ng/mL and the “differential susceptibility on PI3K knockdown” value [5] was “did not reveal differential susceptibility”. The Kd [6] was under 1000 nM, the Kd (PI4Kβ (PF3D7_0509800)) was at most 50 nM and the “effect on hemoglobin-derived peptide levels” value (Pf3D7 trophozoites) was “disruption and reduction”. The IC50 [7] was 538 nM, the “ED90 (dose reducing parasitemia by 90% vs untreated control)” value (Pf3D7) was 0.88 mg/kg and the “differential susceptibility, aptamer-regulatable control line” value [8] was “did not reveal differential susceptibility”. The IC50 [9] was 134 nM, the inhibition at 5 µM [10] was 30% and the “weight loss (humane end point reached before day 7)” value (Tolerability) was at least 15%. The inhibition at 2 µM [11] was 89%, the IC50 (PfNF54 strain) was 58 nM and 0.018 µg/mL and the Kd [12] was under 1000 nM. The Kd [13] was under 1000 nM.

— publication PMC9951552 (Science translational medicine, 2022)
